Measurements reported in patent US20260101897A1, “PLANT ENVIRONMENTAL STRESS TOLERANCE IMPROVEMENT AGENT AND ENVIRONMENTAL STRESS TOLERANCE IMPROVEMENT METHOD” (priority 2022, published 2026).

Legend:
Type in all cases: in vivo
[1] = test system: Arabidopsis thaliana (Col-0); test: Evaluation Example 1: tolerance to salt stress, plant mortality
Procedure: L-(+)-ergothioneine (Examples 1 and 2 and Comparative Example 3) and glycine betaine (Comparative Examples 1 and 2 and Comparative Example 4) were prepared so as to have the concentrations shown in Table 1 below. EGT and GB were commercially available products, and pure water was used as a solvent.
Three individuals of Arabidopsis thaliana (Col-0) were seeded per well in a 24-well cell culture plate. Mixed salts for Murashige and Skoog medium (Fujifilm Wako Pure Chemical Industries, Ltd.) to which 1 wt. % of sucrose and 0.1 wt. % of agar-agar powder were added was used as a liquid medium, and the liquid medium was placed in a 2 mL per well.
They were located in a growth chamber set at room temperature of 22° C., and the light period was 16 hours and the dark period was 8 hours. The light conditions were set such that the light intensity was 5000 lx in the central part under irradiation with the fluorescent lamp. On the fourth day after seeding, EGT or GB was added so as to give a predetermined concentration, and 24 hours later, an aqueous sodium chloride solution was added so as to give a final 100 mM concentration, thereby giving a salt stress.
The number of surviving plants was counted on the 10th day after seeding, and the plant mortality rate was evaluated as an index of physiological disorder. The mortality rate and the environmental stress suppressing rate were calculated according to the following formulas.

[2] = test system: Arabidopsis thaliana (Col-0); test: Evaluation Example 2: tolerance to drying stress, plant mortality
Procedure: A commercially available EGT was used, and pure water was used as a solvent.
(§1) One individual Arabidopsis thaliana (Col-0) was seeded in a plastic pot having a diameter of 60 mm and a height of 55 mm. Plastic deep dishes each having a diameter of 160 mm and a height of 28 mm were prepared, and six pots were respectively placed therein. As soil, 45 mL of vermiculite, 22.5 mL of granular soil (Kumiai horticultural soil), and 22.5 mL of vermiculite were placed in the pot in this order.
They were located in a growth chamber set at room temperature of 22° C., and the light period was 16 hours and the dark period was 8 hours. The light conditions were set such that the light intensity was 5000 lx in the central part under irradiation with the fluorescent lamp. Water supply was conducted from the bottom, and the water level was set at about 5 mm. EGT in an amount of 50 mL was added on the 22nd day after seeding, and drying stress was applied by stopping water supply for 18 days from 2 days after the addition of EGT.
The number of surviving plants was counted 18 days after the stoppage of water, and the plant mortality rate was evaluated as an index of physiological disorder. The mortality rate and the environmental stress suppressing rate were calculated according to the following formulas.

[3] = test system: Arabidopsis thaliana (Col-0); test: Evaluation Example 5: tolerance to excessive nutrient stress, leaf wilting; conditions: for leaf wilting due to excessive nutrient stress, result in words: 0.5 mM; for Leaf wilting rate: test compound 0.5 mM (50 mL), excessive nutrient stress Yes (liquid fertilizer at 5-fold dilution), one day after stress; for Environmental stress suppressing rate: test compound 0.5 mM, excessive nutrient stress Yes
Procedure: EGT and GB were commercially available products, and pure water was used as a solvent.
as §1, with “four” for “six”
They were located in a growth chamber set at room temperature of 22° C., and the light period was 16 hours and the dark period was 8 hours. The light conditions were set such that the light intensity was 5000 lx in the central part under irradiation with the fluorescent lamp. Water supply was conducted from the bottom, and the water level was set at about 5 mm. On the 61st day after seeding, 50 mL of EGT or 50 mL of GB was added, and one day after that, a liquid fertilizer (HYPONeX, manufactured by Hyponex Japan Corp., Ltd.) was applied at a 5-fold dilution to give excessive nutrient stress.
The number of wilted leaves was evaluated one day after the excessive nutrient stress was applied. The leaf wilting rate and the environmental stress suppressing rate were calculated according to the following formulas.

turf (Manila grass) = test: Evaluation Example 11: tolerance to ultraviolet stress, leaf mortality; conditions: for Environmental stress suppressing rate: ultraviolet stress Yes
Procedure: EGT (Examples 14 and 15, Comparative Examples 45 and 46) or GB (Comparative Examples 43, 44, 47 and 48) was prepared so as to have a concentration shown in Table 11 below. EGT and GB were commercially available products, and pure water was used as a solvent.
Turf (Manila grass) cut into a 50 mm square was placed on a petri dish and managed in a greenhouse at room temperature of 25° C. The plant height was trimmed to the length of 10 mm. 10 mL of EGT or 10 ml of GB was added per petri dish, and one day after that, ultraviolet stress was applied by exposure for one hour under irradiation with an ultraviolet lamp (GL-15, manufactured by Toshiba Corporation) with the intensity of ultraviolet radiation of a wavelength of 254 nm set to 525 μW/cm^−2.
Dead leaves were counted 7 days after the ultraviolet stress was applied, and the leaf mortality rate was evaluated as an index of physiological disorder. The leaf mortality rate and the environmental stress suppressing rate were calculated according to the following formulas.

[4] = test compound 0.1 mM, salt stress Yes (100 mM sodium chloride)
[5] = test compound 0.1 mM, salt stress Yes (100 mM sodium chloride), 10th day after seeding
[6] = test compound 1 mM, salt stress No
[7] = test compound 1 mM, salt stress Yes (100 mM sodium chloride)
[8] = test compound 1 mM, salt stress Yes (100 mM sodium chloride), 10th day after seeding
[9] = test compound 0.1 mM (10 mL), ultraviolet stress Yes (254 nm, one hour), 7 days after stress
[10] = test compound 0.1 mM, ultraviolet stress No
[11] = test compound 1 mM (10 mL), ultraviolet stress Yes (254 nm, one hour), 7 days after stress
[12] = test compound 1 mM, ultraviolet stress No

C[N+](C)(C)[C@@H](Cc1c[nH]c(=S)[nH]1)C(=O)[O-] [EGT, L-(+)-ergothioneine]
Environmental stress suppressing rate [1, 4]: 48%
Mortality rate [1, 5]: 39%
Mortality rate [1, 6]: 0%
Environmental stress suppressing rate [1, 7]: 81%
Mortality rate [1, 8]: 14%
survival under drying stress, result in words ([2]; EGT 1 mM, drying stress): all Arabidopsis thaliana plants survived
Mortality rate ([2]; test compound 1 mM (50 mL), drying stress Yes, water supply stopped 18 days): 0%
Environmental stress suppressing rate ([2]; test compound 1 mM, drying stress Yes): 100%
leaf wilting due to excessive nutrient stress, result in words [3]: suppressed
Leaf wilting rate [3]: 24%
Environmental stress suppressing rate [3]: 76%
Leaf mortality rate (turf (Manila grass); [9]): 13%
Leaf mortality rate (turf (Manila grass); [10]): 2%
Environmental stress suppressing rate (turf (Manila grass); test compound 0.1 mM): 79%
Leaf mortality rate (turf (Manila grass); [11]): 6%
Leaf mortality rate (turf (Manila grass); [12]): 0%
Environmental stress suppressing rate (turf (Manila grass); test compound 1 mM): 90%

C[N+](C)(C)CC(=O)[O-] [GB, glycine betaine, reference compound]
death due to salt stress, result in words ([1]; GB treatment 1 mM and 0.1 mM, salt stress): not suppressed
Environmental stress suppressing rate [1, 4]: 0%
Mortality rate [1, 5]: 79%
Mortality rate [1, 6]: 0%
Environmental stress suppressing rate [1, 7]: 0%
Mortality rate [1, 8]: 75%
leaf wilting due to excessive nutrient stress, result in words [3]: hardly suppressed
Leaf wilting rate [3]: 89%
Environmental stress suppressing rate [3]: 11%
mortality rate due to ultraviolet stress, result in words (turf (Manila grass); GB 1 mM and 0.1 mM, ultraviolet stress): hardly suppressed
Leaf mortality rate (turf (Manila grass); [9]): 54%
Leaf mortality rate (turf (Manila grass); [10]): 2%
Environmental stress suppressing rate (turf (Manila grass); test compound 0.1 mM): 14%
Leaf mortality rate (turf (Manila grass); [11]): 59%
Leaf mortality rate (turf (Manila grass); [12]): 0%
Environmental stress suppressing rate (turf (Manila grass); test compound 1 mM): 6%
